Reference: ChEMBL document CHEMBL4699609, “Synthesis and biological activities of simplified aplysiatoxin analogs focused on the CH/π interaction” (Bioorg Med Chem Lett, 2020)
Calls of active or inactive are those of the source. The rule behind the calls is not given here.

Legend:
[1] = Induction of inflammation in ICR mouse assessed as increase in relative weight of each ear at 170 nmol measured after 24 hrs; type: tissue-based
MKN-45 = experiment: Antiproliferative activity against human MKN-45 cells assessed as cell growth inhibition after 48 hrs by sulforhodamine B assay; type: functional
St-4 = experiment: Antiproliferative activity against human St-4 cells assessed as cell growth inhibition after 48 hrs by sulforhodamine B assay; type: functional
Ear = experiment: Proinflammatory activity in ICR mouse assessed as increase in relative weight of each ear at 17 nmol measured after 24 hrs; type: functional, tissue-based
HCC 2998 = experiment: Antiproliferative activity against human HCC 2998 cells assessed as cell growth inhibition after 48 hrs by sulforhodamine B assay; type: functional
[2] = target: Protein kinase C delta type (Mus musculus, UniProt P28867); experiment: Displacement of [3H]-PDBu from PKCdelta C1B domain in CD-1 mouse brain cytosol; type: subcellular
LOX IMVI = experiment: Antiproliferative activity against human LOX IMVI cells assessed as cell growth inhibition after 48 hrs by sulforhodamine B assay; type: functional
[3] = Antiproliferative activity against human HBC-4 cells assessed as cell growth inhibition after 48 hrs by sulforhodamine B assay; type: functional; conditions: HBC4
SF-295 = experiment: Antiproliferative activity against human SF-295 cells assessed as cell growth inhibition after 48 hrs by sulforhodamine B assay; type: functional
A549 = experiment: Antiproliferative activity against human A549 cells assessed as cell growth inhibition after 48 hrs by sulforhodamine B assay; type: functional
[4] = target: Protein kinase C alpha type (Mus musculus, UniProt P20444); experiment: Displacement of [3H]-PDBu from PKCalpha C1A domain in CD-1 mouse brain cytosol; type: subcellular
NCI-H460 = experiment: Antiproliferative activity against human NCI-H460 cells assessed as cell growth inhibition after 48 hrs by sulforhodamine B assay; type: functional
MDA-MB-231 = experiment: Antiproliferative activity against human MDA-MB-231 cells assessed as cell growth inhibition after 48 hrs by sulforhodamine B assay; type: functional

Chain of Protein kinase C delta type (P28867 whole entry, the tested form may be a part): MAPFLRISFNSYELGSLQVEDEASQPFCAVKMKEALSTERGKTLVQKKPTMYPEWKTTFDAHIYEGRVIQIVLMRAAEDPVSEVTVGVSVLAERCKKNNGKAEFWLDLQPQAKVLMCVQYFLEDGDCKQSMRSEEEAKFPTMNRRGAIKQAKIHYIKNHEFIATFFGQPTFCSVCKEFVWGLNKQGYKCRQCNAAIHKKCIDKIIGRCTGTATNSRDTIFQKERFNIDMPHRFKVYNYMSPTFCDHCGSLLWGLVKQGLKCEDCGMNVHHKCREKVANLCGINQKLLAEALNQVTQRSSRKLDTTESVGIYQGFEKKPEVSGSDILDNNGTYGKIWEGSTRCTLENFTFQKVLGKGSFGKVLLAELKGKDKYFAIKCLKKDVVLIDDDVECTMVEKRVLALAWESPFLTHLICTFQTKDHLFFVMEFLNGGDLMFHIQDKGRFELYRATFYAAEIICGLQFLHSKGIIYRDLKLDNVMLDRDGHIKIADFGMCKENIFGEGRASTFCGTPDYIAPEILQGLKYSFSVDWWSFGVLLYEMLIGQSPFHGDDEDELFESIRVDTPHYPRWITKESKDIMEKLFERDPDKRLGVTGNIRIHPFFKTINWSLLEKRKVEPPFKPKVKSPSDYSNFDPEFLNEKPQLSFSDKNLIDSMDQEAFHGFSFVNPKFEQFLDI

| Structure (SMILES) | Activity [1] | GI50 (MKN-45) [nM] | GI50 (St-4) [nM] | Activity (Ear) | GI50 (HCC 2998) [nM] | Ki [2] [nM] | GI50 (LOX IMVI) [nM] | GI50 [3] [nM] | GI50 (SF-295) [nM] | GI50 (A549) [nM] | Ki [4] [nM] | GI50 (NCI-H460) [nM] | GI50 (MDA-MB-231) [nM] |
| --- | --- | --- | --- | --- | --- | --- | --- | --- | --- | --- | --- | --- | --- |
| C[C@H]1[C@@H]2C[C@@]3(O[C@H](CCC3(C)C)CC(=O)O[C@@H](CO)CC(=O)O2)O[C@@H]1CCCCc1cccc(O)c1 | Toxic | – | – | – | – | – | – | – | – | – | – | – | – |
| C[C@H]1[C@@H]2C[C@@]3(O[C@H](CCC3(C)C)CC(=O)O[C@@H](CO)CC(=O)O2)O[C@@H]1CCCCc1cccc2cc(OCc3ccccc3)ccc12 | – | 195 | 52.5 | Active | 398 | 0.74 | 182 | 63.1 | 871 | 692 | 7.6 | 115 | 537 |
| C[C@H]1[C@@H]2C[C@@]3(O[C@H](CCC3(C)C)CC(=O)O[C@@H](CO)CC(=O)O2)O[C@@H]1CCCCc1cccc2cc(O)ccc12 | Toxic | 479 | 240 | – | 501 | 0.98 | 447 | 91.2 | 955 | 759 | 6.4 | 162 | 891 |
